Here are results for seven molecules from paper PMC10667233, “New cytotoxic dammarane type saponins from Ziziphus spina-christi” (Scientific Reports, 2023).

Series [1] has as its system A549. Briefly: MTS cell viability, A549 lung cancer cells. The note with it: Homo sapiens, read-out: IC50 (µg/mL) values. Type of series: cell-based. The protocol:
(§1) A549, U87, MDA-MB-231, and CT-26 cells were purchased from American Type Culture Collection (ATCC) (Manassas, VA, USA). The cells, A549 and CT-26 were cultured in RPMI-1640 supplemented with 1% Pen/Strep (100 U mL^–1, Gibco, Carlsbad, CA) and 10% FBS (Atlanta Biologicals, Flowery Branch, GA). While MDA-MB-231 and U87 cells were cultured in DMEM medium supplemented with 1% Pen/Strip and 10% FBS. Cells were incubated at 37 °C and 5% CO2 in humidified incubator (Sanyo Scientific Autoflow, Hudson, MA).
(§2) A549, U87, MDA-MB-231, and CT-26 cancer cells were plated in 96-well plates at a density of 2X10^4 cells/well in 100 μL of medium before the addition of different concentrations of the plant extracts. Untreated control group was incubated with^-100 µL/well of fresh media and^-methanol. After 24 h., the medium was aspirated and replaced by-100 µL of fresh media, and 20 µL of MTS^-reagent in each well (CellTiter 96^-Aqueous One^-Solution cell^-proliferation assay, Promega^-Corporation, Madison,^-WI,^-USA). The plates were then incubated at 37 °C with 5% CO2 for 2 h. The absorbance was measured at 490 nm using a Spectramax plus 384 Microplate reader (Molecular Devices, Sunnyvale, CA, USA). Relative cell viability values were expressed as the percentage of the absorbance from the treated wells compared to the control wells (untreated), given that the control wells viability was set to 100%. The cells were examined under a cell imaging system (EVOS FL Digital Microscope) using a 20X objective as well before getting rid of the plates. The half-maximal inhibitory concentrations (IC50) of pure compounds for four […] cancer cell lines were calculated.
(§3) Figure 3 The anticancer activities of the three pure compounds (1–3) isolated from Ziziphus spina-christi using the MTS assay on glioblastoma, breast cancer, lung, and colorectal carcinoma cells. Cancer cells lines A549 (a) U87 (b), MDA-MB-231 (c) and CT-26 […] were tested. […] Cells were stained with MTS reagents and cell survival was quantitated using the spectramax plate reader. […]

Series [2] concerns CT-26. The series is described as follows: MTS cell viability, CT-26 colorectal carcinoma cells. To be noted: read-out: IC50 (µg/mL) values. Type of series: cell-based. The protocol:
as §1, §2, §3

The test system of series [3] is MDA-MB-231. The series is described as follows: MTS cell viability, MDA-MB-231 breast cancer cells. Type of series: cell-based. The note with it: Homo sapiens, read-out: IC50 (µg/mL) values. The protocol: as §1, §2, §3
The subject of series [4] is U87. Briefly: MTS cell viability, U87 glioblastoma cells. Type of series: cell-based. To be noted: Homo sapiens, U-87 MG, 24 h, read-out: IC50 (µg/mL) values. The protocol:
as §1, §2, §3

Series [5] relates to breast cancer cell line MDA-MB-231. On the set-up: method as in PMID 19960417. To be noted: 50 μmol/l, MDA-MB-231 in vitro; cited from earlier work.
Series [6] deals with sarcoma S180. On the set-up: method as in PMID 19960417. To be noted: 50 μmol/kg, mice implanted with sarcoma S180; cited from earlier work.
Series [7] concerns EBV-EA. To be noted: cited from earlier work.
Series [8] deals with A549 cells. More on the design: method as in PMID 26922140. To be noted: concentration-dependent; cited from earlier work.

In brackets after ≈: the same amount, converted by molar mass. Where two headings read alike, the source gives them in different places.

As a reminder, the inhibition is the share of the control response that was lost under treatment.

`CC(C)=CC1CC(C)(O)C2C3CCC4C5(C)CCC(OC6OCC(O)C(OC7OC(CO)C(OC(=O)C=Cc8ccc(O)cc8)C(O)C7O)C6OC6OC(C)C(O)C(O)C6O)C(C)(C)C5CCC4(C)C34COC2(C4)O1` (stereo not drawn) [Compound 1, Christinin E]: the IC50 worked out at 9.53 ± 0.01 µg/mL (≈ 9 µM) in series [1] (A549, MTS, 24 h); 0.7 ± 0.049 µg/mL (≈ 0.661 µM) in series [2] (CT26, CT-26, MTS, 24 h); 6.02 ± 1.5 µg/mL (≈ 5.68 µM) in series [3] (MDA-MB-231, MTS, 24 h); 5.7 ± 1.63 µg/mL (≈ 5.38 µM) in series [4] (U87, MTS).

With `CC(C)=CC1CC(C)(O)C2C3CCC4C5(C)CCC(OC6OCC(O)C(OC7OC(CO)C(OC(=O)C=Cc8ccc(OC(=O)C(=O)O)cc8)C(O)C7O)C6OC6OC(C)C(O)C(O)C6O)C(C)(C)C5CCC4(C)C34COC2(C4)O1` (stereo not drawn) [Compound 2, Christinin F], the IC50 in series [1] (A549, MTS, 24 h) is 4.89 ± 0.93 µg/mL (≈ 4.32 µM); in series [2] (CT26, CT-26, MTS, 24 h) it was 7.21 ± 0.35 µg/mL (≈ 6.37 µM); in series [3] (MDA-MB-231, MTS, 24 h) it was 5.81 ± 0.087 µg/mL (≈ 5.14 µM); in series [4] (U87, MTS) it was 4.16 ± 0.87 µg/mL (≈ 3.68 µM).

Turning to `CC(C)=CC1CC(C)(O)C2C3CCC4C5(C)CCC(OC6OCC(O)C(OC7OC(CO)C(O)C(O)C7O)C6OC6OC(C)C(O)C(O)C6O)C(C)(C)C5CCC4(C)C34COC2(C4)O1` (stereo not drawn) [Compound 3, christinin A], the IC50 in series [1] (A549, 24 h) came to 5.67 ± 1.05 µg/mL (≈ 6.21 µM); in series [2] (CT26, 24 h), 5.47 ± 1.3 µg/mL (≈ 5.99 µM); in series [3] (MDA-MB-231, 24 h), 9.3 ± 0.19 µg/mL (≈ 10.2 µM); in series [4], 7.28 ± 0.56 µg/mL (≈ 7.97 µM).

For the molecule `CC(C)=CC1C[C@](C)(O)[C@@H]2[C@@H]3CC[C@@H]4[C@@]5(C)CC[C@H](O[C@@H]6OC[C@H](O)[C@H](O[C@@H]7O[C@H](CO)[C@@H](O)[C@H](O)[C@H]7O)[C@H]6O[C@@H]6O[C@@H](CO)[C@H](O)[C@H]6O)C(C)(C)[C@@H]5CC[C@@]4(C)[C@]34CO[C@@]2(C4)O1` (stereo partly drawn) [bacopaside VII], the “adhesion, migration, and matrigel invasion (in words)” value in series [5] is “markedly reduced”. Moreover, the inhibition in series [6] is 84.13%.

As to `C=C(C)[C@@H]1CC[C@]2(C)[C@H](CC[C@@H]3[C@@H]([C@@](C)(O)CCC=C(C)C)CC[C@]32C)[C@@]1(C)CCC(=O)O` [dammarenolic acid], in series [7], the IC50 is recorded as 226 mol ratio/32 pmol TPA.

As to bacopaside É, the “adhesion, migration, and matrigel invasion (in words)” value in series [5] is reported as “markedly reduced”. Further, in series [6], the inhibition was 90.52%.

On to gypenoside Jh1, for which, in series [8], the “cytotoxicity (in words)” value was “strong cytotoxicity”.
